From publication PMC4640066 (Nature Communications, 2015) come the findings set out here.

Molecules are shown by their SMILES.

One assay concerns the target T1, γ-TuSC (Saccharomyces cerevisiae, UniProt P53378).
T1 construct: made in house; host or cells: HighFive insect cells
T1 sequence (P53378 1-473): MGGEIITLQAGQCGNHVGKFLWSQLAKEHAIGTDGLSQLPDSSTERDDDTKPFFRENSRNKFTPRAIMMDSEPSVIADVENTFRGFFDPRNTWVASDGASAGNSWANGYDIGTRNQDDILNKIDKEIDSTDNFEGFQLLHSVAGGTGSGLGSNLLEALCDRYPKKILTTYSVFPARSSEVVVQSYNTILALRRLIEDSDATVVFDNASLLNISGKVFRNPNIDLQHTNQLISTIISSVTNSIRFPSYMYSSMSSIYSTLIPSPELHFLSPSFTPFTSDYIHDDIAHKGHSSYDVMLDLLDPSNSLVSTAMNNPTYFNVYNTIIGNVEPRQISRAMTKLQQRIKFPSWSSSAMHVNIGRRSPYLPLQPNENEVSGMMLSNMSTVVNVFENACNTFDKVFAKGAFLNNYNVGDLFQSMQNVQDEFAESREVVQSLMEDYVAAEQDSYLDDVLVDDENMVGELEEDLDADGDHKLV
T1 sequence (P38863 1-823 partner): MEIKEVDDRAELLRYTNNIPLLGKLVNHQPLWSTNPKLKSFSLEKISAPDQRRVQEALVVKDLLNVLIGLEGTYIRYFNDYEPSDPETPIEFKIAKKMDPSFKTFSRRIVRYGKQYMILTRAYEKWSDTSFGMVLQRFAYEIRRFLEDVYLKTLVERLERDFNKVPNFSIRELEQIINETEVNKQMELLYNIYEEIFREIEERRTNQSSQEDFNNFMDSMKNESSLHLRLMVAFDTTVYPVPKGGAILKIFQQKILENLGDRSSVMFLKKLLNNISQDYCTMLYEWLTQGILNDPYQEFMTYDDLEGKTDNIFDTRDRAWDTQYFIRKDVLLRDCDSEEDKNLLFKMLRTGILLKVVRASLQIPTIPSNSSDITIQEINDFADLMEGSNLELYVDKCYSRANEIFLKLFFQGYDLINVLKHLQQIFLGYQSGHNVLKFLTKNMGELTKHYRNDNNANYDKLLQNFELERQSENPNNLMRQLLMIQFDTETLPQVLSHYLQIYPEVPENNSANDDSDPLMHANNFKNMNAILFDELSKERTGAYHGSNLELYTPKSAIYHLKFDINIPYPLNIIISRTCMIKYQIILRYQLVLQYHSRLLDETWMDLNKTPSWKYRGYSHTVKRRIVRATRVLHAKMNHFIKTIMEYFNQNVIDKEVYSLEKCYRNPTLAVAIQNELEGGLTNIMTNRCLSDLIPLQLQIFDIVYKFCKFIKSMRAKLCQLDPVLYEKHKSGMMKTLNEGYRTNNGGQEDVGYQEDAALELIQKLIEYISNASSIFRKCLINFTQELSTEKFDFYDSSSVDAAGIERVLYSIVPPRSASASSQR
T1 sequence (P53540 1-846 partner): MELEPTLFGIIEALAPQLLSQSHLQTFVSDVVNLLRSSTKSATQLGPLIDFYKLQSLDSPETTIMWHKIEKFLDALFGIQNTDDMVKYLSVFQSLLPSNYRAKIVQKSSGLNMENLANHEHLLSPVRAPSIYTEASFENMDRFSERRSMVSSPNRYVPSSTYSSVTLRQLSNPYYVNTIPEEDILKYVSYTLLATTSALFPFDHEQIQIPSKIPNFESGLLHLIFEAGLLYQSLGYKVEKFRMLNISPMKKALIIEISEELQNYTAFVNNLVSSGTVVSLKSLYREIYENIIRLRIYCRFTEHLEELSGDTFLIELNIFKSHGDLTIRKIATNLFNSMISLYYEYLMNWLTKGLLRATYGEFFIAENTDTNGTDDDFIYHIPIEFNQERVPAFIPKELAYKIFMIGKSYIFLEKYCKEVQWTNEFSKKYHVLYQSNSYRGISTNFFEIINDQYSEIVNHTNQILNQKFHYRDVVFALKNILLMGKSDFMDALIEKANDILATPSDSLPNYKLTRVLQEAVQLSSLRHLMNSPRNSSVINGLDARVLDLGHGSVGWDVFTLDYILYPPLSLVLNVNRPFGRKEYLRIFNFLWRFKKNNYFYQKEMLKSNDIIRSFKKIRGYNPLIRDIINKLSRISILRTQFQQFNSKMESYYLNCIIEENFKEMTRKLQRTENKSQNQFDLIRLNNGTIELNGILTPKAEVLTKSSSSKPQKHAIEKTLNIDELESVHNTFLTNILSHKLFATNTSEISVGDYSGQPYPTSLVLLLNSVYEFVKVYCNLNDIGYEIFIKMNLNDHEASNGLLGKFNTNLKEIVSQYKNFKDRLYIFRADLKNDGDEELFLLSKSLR
Kind of assay: γ-TuSC-stimulated MT polymerization in vitro. It counts as biochemical. Particulars: same concentration as ineffective on glutamate, paclitaxel and Tau-induced MT formation. As to the method:
For glutamate-stimulated MT polymerization, 1 mg ml^−1 porcine brain α/β-tubulin was mixed with glutamate (final concentration 1 M) and GTP (final concentration 1 mM) in RB buffer on ice. For paclitaxel-stimulated MT polymerization, 1 mg ml^−1 porcine brain α/β-tubulin was mixed with paclitaxel (final concentration 10 μM) and GTP (final concentration 1 mM) in RB buffer on ice. For recombinant Tau protein-stimulated MT polymerization, 1 mg ml^−1 α/β-tubulin purified from porcine brain and Tau protein were mixed with GTP (final concentration 1 mM) in RB buffer on ice. For γ-TuSC-stimulated MT polymerization, γ-TuSC was mixed with GTP (final concentration 1 mM). One of the compounds and α/β-tubulin were then added. Samples were transferred into cuvettes. Tubulin polymerization was monitored using the absorbance at 350 nm at 37 °C using a thermostatic spectrophotometer (Beckman Coulter).

A further assay deals with HeLa cells. Kind of assay: Anaphase spindle elongation, time-lapse anaphase duration. It counts as cell-based, human. The following applies: 30 μM, after MG132 washout, 1 μM reversine, control 18.6 min. As to the method:
HeLa cells expressing mCherry-H2B and EGFP-α-tubulin, HeLa ‘Kyoto' cell line stably expressing CEP55-LAPtag (a kind gift from Dr A.A. Hyman) and HeLa cells expressing RFP-H2B and GFP-LifeAct (a kind gift from Dr J. Ellenberg) were cultured in DMEM+GlutaMAX (Gibco) supplemented with 10% FBS, 100 U ml^−1 penicillin, 100 μg ml^−1 streptomycin and 1 mM sodium pyruvate in a humidified atmosphere containing 5% CO2. To observe the transition from metaphase to anaphase, telophase and cytokinesis, cells were arrested at metaphase by sequential treatment of STLC and MG132. After MG132 removal by washing of cells with medium three times, the medium was changed to Live Cell Imaging Solution (Molecular Probes Life Technologies) supplemented as described above containing 1 μM of MPS1 inhibitor reversine and either DMSO or 30 μM of gatastatin. Time-lapse observation was performed at 37 °C using the DeltaVision Olympus IX71 microscope (Applied Precision) equipped with CoolSNAP HQ camera (Photometrics). Images were taken every 3 min with 12 z-stacks (1 μm per stack) for 3 h. The anaphase duration (between chromosome separation and start of midbody formation) was calculated.

As for `COc1cc2c(=O)c(-c3cc(OC)c4c(c3OC)OCO4)coc2cc1OCc1ccccc1` [Gatastatin, O^7-demethylbenzyl AG1], the “Effect on γ-TuSC-stimulated MT polymerization” value on γ-TuSC was “blocked γ-TuSC-stimulated MT polymerization”. In the assay on HeLa cells, this compound showed an Anaphase duration of 32.4 min.
